Here are results for two compounds from patent US4478834A, “Dihydropyridines and their use in the treatment of asthma” (USV Pharmaceutical Corporation, priority 1983, dated 1984).

The test system of one assay is guinea pig lung. As to the kind of experiment: guinea pig lung inhibition. How it is done:
The activity of a compound is expressed as % inhibition of net antigen-induced histamine release. In the case of an active compound the concentration of the compound required for 50% inhibition for AIR (I50) is determined.

The subject of assay [1] is Cyclic Nucleotide Phosphodiesterase (cNUC-PDE). As to the kind of experiment: Cyclic Nucleotide Phosphodiesterase (cNUC-PDE) Assay. The format is biochemical. The settings on record: compounds initially tested at 100 μM; enzyme source (dog heart or rat mast cell) not given. How it is done:
Cyclic Nucleotide Phosphodiesterase (cNUC-PDE) Assay: CNUC-PDE was measured by a modification of the one-step procedure described by Thompson et al. (1979). The reaction was carried out in 7 ml scintillation vials. The reaction mixture consisted of 5 mM MgCl2., 50 mM tris-(hydroxymethyl)aminomethane buffered to pH 8.0 at 37° C. with hydrochloric acid (Tris-chloride), 1-2×10^5 cpm ^3 H-labeled cyclic nucleotide substrate, appropriate concentration of non-labeled cyclic nucleotide, 25 μg/ml lyophilized Ophiophagus hannah venom and appropriate enzyme for linear reaction conditions. The timed reactions were initiated by the addition of an enzyme, incubated at 37° C. for appropriate times for linear reaction rates, and stopped with the addition of 0.8 ml of 50% (v/v) AG 1×8 (200-400 mesh) ion-exchange resin in 50% (v/v) ethanol-Tris-acetate buffer (pH 8.0). The vials were vortexed and the resin mixture allowed to equilibrate for 15 min at 4° C. Scintillation fluid (4.5 ml) was added and radioactivity quantitated in a liquid scintillation counter.
Dog Heart Enzyme Preparations: Mongrel dogs were overdosed with Nembutal® and their hearts surgically removed. […]
Mast Cell Enzyme Preparations: Peritoneal cells were collected and mast cells purified by a procedure similar to that described by Yurt et al., (1977). […] The cells ([…]) were counted with a haemocytometer. […]

Assay [2] can be described thus: Blood pressure in spontaneously hypertensive [SHR] rats. The format is in vivo, rat. The settings on record: intraperitoneal (ip) dose of 100 mg/Kg, over 2 hours duration. Here is the method:
In spontaneously hypertensive [SHR] rats (as described in Laffan, R. J., Patterson, A., Hitch, S. W., Jeunelot, Technique for Prolonged Continuous Recording of Blood Pressures of Unrestricted Rats, Cardiovascular Research, Vol. 6, pp. 319-24, 1972),3,10b-dihydro-2,4-dimethyl-5-oxo-5H[1]benzopyrano[3,4-C]pyridine-1-carboxylic acid ethyl ester (Example 4D) administered intraperitoneal (ip) dose of 100 mg/Kg reduced blood pressure by 17-22% over 2 hours duration.

As for `CCOC(=O)C1=C(C)NC(C)=C2C(=O)Nc3ccccc3C21` (stereo not drawn) [Example 3C, 3,5,6,10b-Tetrahydro-2,4-dimethyl-5-oxo-benzo[c][2,7]naphthyridine-1-carboxylic acid ethyl ester], in the assay with guinea pig lung, the “guinea pig lung inhibition” value is on record as below 50%. The same compound gave a PDE inhibition in assay [1] below 60%.
With `CCOC(=O)C1=C(C)NC(C)=C2C(=O)Oc3ccccc3C12` (stereo not drawn) [Example 4D, 3,10b-Dihydro-2,4-dimethyl-5-oxo-5H[1]benzo-pyrano[3,4-c]pyridine-1-carboxylic acid ethyl ester], the reduced blood pressure in assay [2] is reported as 17-22%.
